Test results reported in the OPERA property sets (Mansouri et al. 2018).

Conditions: for log10 BCF / log10 biotransformation half-life (days): fish

SMILES | melting point [°C] | boiling point [°C] | other results
O=C1CNC(=S)N1 | 230 | – | –
ClC=C(Cl)C(Cl)=CCl | -4 | 188 | –
CCc1cc(C(C)(C)C)c(O)c(C(C)(C)C)c1 | 44 | 272 | ready biodegradability: not readily biodegradable; log10 BCF: 3.46; log10 biotransformation half-life (days): 0.86
O=S(=O)(O)c1cccc2c(S(=O)(=O)O)cccc12 | – | – | ready biodegradability: readily biodegradable
CCCCOCCOCC(C)O (centres undefined) | – | 230 | –
ClC(Cl)(Br)CBr | -26 | 195 | log10 vapour pressure (mmHg): -0.0458
CN(C)B(F)N(C)C | -44.3 | 106 | –
O=C1c2ccccc2C(=O)N1SC(F)(Cl)Cl | – | – | ready biodegradability: not readily biodegradable
CCC(CC)C(C)(C)CC | – | 163 | –
Clc1cccc(-c2cccc(Cl)c2Cl)c1 | – | – | log10 Henry constant (atm·m³/mol): -3.8
OC1CCCCCC1 | 2 | 185 | –
Cc1ccc2oc(C)nc2c1 | – | 218 | –
O=C(O)C=Cc1cccc(C(F)(F)F)c1 | 136 | – | –
Cc1cccc(-c2ccccc2)c1 | 4.5 | 273 | –
O=P(O)(O)CCP(=O)(O)O | 218 | – | –
O=P(Oc1ccccc1)(Oc1ccccc1)Oc1ccccc1 | 50.5 | – | log10 vapour pressure (mmHg): -5.2; ready biodegradability: readily biodegradable; log10 BCF: 2.28; log10 biotransformation half-life (days): -0.76
C#CCCl | – | 58 | –
CC(=O)O.CCCCCCCCCCCCNC(=N)N | 136 | – | log10 vapour pressure (mmHg): -6.82
CC(=O)OCCN(CCC#N)c1ccc(N=Nc2nc3ccc([N+](=O)[O-])cc3s2)cc1 | 167 | – | –
CC1CC(C)NC(C)(C)C1 (centres undefined) | – | 156 | –
CCCCCCCCCCCCS | -8 | 274 | log10 vapour pressure (mmHg): -2.07
CCOC(=O)c1cccc2ccccc12 | – | 310 | –
CCCCOCN(C(=O)CCl)c1c(CC)cccc1CC | -2.8 | – | log10 Henry constant (atm·m³/mol): -7.29; log10 Koc (L/kg): 2.86; log10 vapour pressure (mmHg): -5.54
C#CC1(O)CCCC1 | 27 | 158 | –
CCCCCCCCC(C)=O | 14 | 210 | log10 vapour pressure (mmHg): -0.571; ready biodegradability: readily biodegradable

SMILES | melting point [°C] | boiling point [°C] | other results
C1CC2CC12 (centres undefined) | – | 45.5 | log10 vapour pressure (mmHg): 2.56
CC(=O)N1CCOCC1 | 14.5 | – | –
Clc1ccc(Oc2ccccc2)cc1 | – | 284 | log10 vapour pressure (mmHg): -2.57
C1CCCCCCCCC1 | 10 | 202 | log10 vapour pressure (mmHg): -0.252
CCCc1ccco1 | – | 115 | –
C[C@H](CCC(=O)NCC(=O)O)[C@H]1CC[C@H]2[C@@H]3[C@H](O)C[C@@H]4C[C@H](O)CC[C@]4(C)[C@H]3C[C@H](O)[C@]12C | 166 | – | –
Nc1ccc(O)c([N+](=O)[O-])c1 | 126 | – | –
NS(=O)(=O)c1ccc(SCCCCO)c(F)c1 | 104 | – | –
COc1ccc(C[C@H](N)C(=O)N[C@H]2[C@@H](O)[C@H](n3cnc4c(N(C)C)ncnc43)O[C@@H]2CO)cc1 | 176 | – | –
CCCCCCCCCC=CC(=O)O | 17.1 | – | –
OC(c1ccccc1)(c1ccccc1)C1CCNCC1 | 160 | – | –
CC(N)CC(=O)O (centres undefined) | 193 | – | –
CCOC(=O)CCCC(=O)OCC | -24.1 | 236 | log10 vapour pressure (mmHg): -0.793
O=C(S)c1ccccc1 | 24 | – | –
CN[C@@H](C)[C@@H](O)c1ccccc1 | 90.5 | – | –
ClCc1ccccc1CCl | 55 | 240 | –
CC1(C)[C@H](/C=C2\CCSC2=O)[C@@H]1C(=O)OCc1coc(Cc2ccccc2)c1 | 31 | – | –
CC(=O)c1c(C)cc(C)cc1C | – | 241 | –
COc1ccc(C[C@H]2NC[C@H](O)[C@H]2OC(C)=O)cc1 | 140 | – | –
Cc1cc(O)c(C(C)(C)C)cc1C(C)CC(c1cc(C(C)(C)C)c(O)cc1C)c1cc(C(C)(C)C)c(O)cc1C (centres undefined) | 186 | – | –
CC(C)(O)Cc1ccccc1 | 24 | 215 | –
CCCC(C)Cl (centres undefined) | -80 | 99 | log10 vapour pressure (mmHg): 1.69
Nc1ccc(Cl)cc1[N+](=O)[O-] | 116 | – | ready biodegradability: not readily biodegradable; log10 BCF: 1.04; log10 biotransformation half-life (days): -0.96
CCCC(C)(C)O | -103 | 121 | log10 vapour pressure (mmHg): 0.934
CCOC(=O)c1cccc(C(=O)OCC)c1 | 11.5 | 302 | –

SMILES | melting point [°C] | boiling point [°C] | other results
Nc1c([N+](=O)[O-])ccc(Oc2ccccc2)c1Cl | 81.5 | – | log10 vapour pressure (mmHg): -6.92
CCCc1ccccc1O | 7 | 220 | log10 vapour pressure (mmHg): -1.05
Cl.N=C(N)N | 182 | – | –
CC(C)CC(N)=O | 137 | 226 | –
CON=O | -16 | -12 | –
OCCc1c[nH]c2ccccc12 | 59 | – | –
COc1ccccc1N=Nc1ccccc1 | 41 | – | –
CC1=NN(c2ccc(C)cc2)C(=O)C1 | 138 | – | –
CCCCNC(=O)OCC(C)(CCC)COC(N)=O (centres undefined) | 50 | – | –
Cc1c(F)c(F)c(C(=O)O)c(F)c1F | 174 | – | –
Nc1ccccc1C(F)(F)F | 35.5 | 187 | –
CC[C@H]1OC(=O)[C@H](C)[C@@H](O[C@@H]2O[C@H](C)C[C@H](N(C)C)[C@H]2O)[C@@H](C)C[C@@H](C)C(=O)C=C[C@]1(C)O | 196 | – | –
CC1CCC(C)(C)C1 (centres undefined) | -142 | 105 | log10 vapour pressure (mmHg): 1.05
CC(C(C)(C)C)C(C)(C)C | -38.7 | 159 | –
CC(=O)Nc1cccnc1 | 133 | 326 | –
CCC1C(C)=NN=C(c2ccc(OC)c(OC)c2)c2cc(OC)c(OC)cc21 (centres undefined) | 156 | – | –
CCOCCCO | 160 | – | –
Cc1ccc(C(=O)COc2c(C(=O)c3ccc(Cl)c(C)c3Cl)c(C)nn2C)cc1 | 133 | – | log10 vapour pressure (mmHg): -7.01
C[C@@H](O)C1CC1 | -32.1 | 124 | –
CC1CCC(C(=O)O)C(C(=O)O)C1 (centres undefined) | – | – | log10 BCF: 0.38
COC(=O)Nc1cccc(OC(=O)Nc2cccc(C)c2)c1 | 143 | – | log10 Koc (L/kg): 3.38; log10 vapour pressure (mmHg): -11
COc1cccc(Cl)c1 | – | 194 | –
CCC(C(N)=O)c1ccccc1 (centres undefined) | 86 | – | –
CC(C)COCc1ccccc1 | – | 212 | –
Cc1ccc(C(=O)O)cc1 | 180 | – | log10 Koc (L/kg): 1.77; log10 vapour pressure (mmHg): -4.29; ready biodegradability: readily biodegradable

SMILES | melting point [°C] | boiling point [°C] | other results
CCCCc1cccnc1 | – | 206 | –
CC(C)COC(=O)c1ccccc1O | 5.9 | 261 | –
CCC(C(=O)O)C(=O)O | 114 | – | –
CCOc1ccccc1O | 29 | 217 | –
O=C(OCC(=O)N1CCC[C@H]1C(=O)O)c1ccccc1 | 116 | – | –
Cc1ccc2c(ccc3ccccc32)c1 | 58 | – | log10 biodegradation half-life (days): 1.36; log10 BCF: 3.48
Nc1ccc(CCc2ccc(N)cc2)cc1 | 137 | – | –
CCc1ccccc1Cl | -82.7 | 178 | –
CC(C)(C)C(=O)Cl | – | 107 | –
CCCCCCCCCS | -20.1 | 220 | log10 vapour pressure (mmHg): -0.881
O=C(O)c1cccc(Cl)c1 | 158 | – | ready biodegradability: readily biodegradable
CNO | 87.5 | – | log10 vapour pressure (mmHg): 0.222
Cc1c(C)c(C)c(N)c(C)c1C | 152 | 278 | –
CC(C)[C@@H](C)/C=C/[C@@H](C)[C@H]1CC[C@H]2C3=CC=C4C[C@@H](O)CC[C@]4(C)[C@H]3CC[C@]12C | 127 | – | –
OC[C@@H](O)[C@H]1O[C@@H]2O[C@H](C(Cl)(Cl)Cl)O[C@@H]2[C@H]1O | 183 | – | –
Cc1cc(C)c(C)c(O)c1C | 118 | 247 | –
C=CC(O)CCl (centres undefined) | – | 146 | –
O=[N+]([O-])c1ccccc1-c1ccccc1[N+](=O)[O-] | 126 | 305 | –
CCCCCCS | -81 | 151 | log10 vapour pressure (mmHg): 0.624
Cc1ccnc(N)c1 | 100 | – | –
C=CC1CO1 (centres undefined) | -135 | 68 | –
COP(=S)(OC)SCC(=O)N(c1ccc(Cl)cc1)C(C)C | 51 | – | –
FCOC(C(F)(F)F)C(F)(F)F | – | 58.5 | log10 vapour pressure (mmHg): 2.29
O=C1c2ccccc2C(=O)c2c1cc(S(=O)(=O)[O][Na])c(O)c2O | – | – | ready biodegradability: not readily biodegradable
CCCCNCCCC | -62 | 160 | log10 Henry constant (atm·m³/mol): -4.05; log10 vapour pressure (mmHg): 0.413; ready biodegradability: readily biodegradable

SMILES | melting point [°C] | boiling point [°C] | other results
N[C@H](Cc1ccccc1)c1ccccc1 | – | 311 | –
c1ccc2c(c1)Cc1c-2ccc2ccccc12 | 190 | 405 | log10 Henry constant (atm·m³/mol): -4.58; log10 biodegradation half-life (days): 2.15; log10 vapour pressure (mmHg): -6.61
O=[N+]([O-])c1ccccc1F | -6 | – | –
CC(Cl)(Cl)C(=O)[O][Na] | – | – | log10 Koc (L/kg): 0; log10 BCF: 0.86
COc1cc(-c2ccc(N)c(OC)c2)ccc1N | 137 | 356 | ready biodegradability: not readily biodegradable
CC(C)(CO)COC(=O)C(C)(C)CO | – | – | ready biodegradability: not readily biodegradable
O=CC=O | 15 | 50.4 | log10 Henry constant (atm·m³/mol): -8.48; log10 vapour pressure (mmHg): 2.41; ready biodegradability: readily biodegradable
O=[N+]([O-])c1cc([N+](=O)[O-])c(F)cc1F | 73 | – | –
Cc1ccnc(C)n1 | -4 | 150 | –
OCc1ccc(F)cc1 | 23 | 210 | –
CC1(C)C(=O)NC(=O)N1CO | 100 | – | –
CC(N)(CO)CO | 110 | – | –
COC(=O)[C@@H](N)Cc1ccc(O)cc1 | 137 | – | –
C1CSCS1 | -50 | 175 | –
Cc1cc(C)cc(O)c1 | 63.6 | 222 | log10 Henry constant (atm·m³/mol): -6.21; log10 Koc (L/kg): 2.83; log10 vapour pressure (mmHg): -1.39
CN=Cc1ccccc1 | – | 185 | –
CCC(C)(C)C(C)C | -101 | 115 | log10 biodegradation half-life (days): 1.72; log10 vapour pressure (mmHg): 1.43
C=C(C)CCCCCCCCCC | – | – | log10 biotransformation half-life (days): 0.64
CCC(C)c1cc([N+](=O)[O-])cc([N+](=O)[O-])c1OC(=O)OC(C)C (centres undefined) | 61 | – | –
CCCCON=O | – | 78 | –
FC(F)(F)I | – | -22.5 | –
Oc1cc(Cl)cc(Cl)c1 | 68 | 233 | log10 Koc (L/kg): 2.83; log10 vapour pressure (mmHg): -2.07; ready biodegradability: not readily biodegradable; log10 BCF: 1.91; log10 biotransformation half-life (days): -0.91
CCCCCCCCC(C)CCC (centres undefined) | – | – | log10 biotransformation half-life (days): 0.98
O=[N+]([O-])c1cccc(I)c1 | 38.5 | 280 | –
